# Laboratory results published in ChEMBL document CHEMBL5291721, “A preclinical secondary pharmacology resource illuminates target-adverse drug reaction associations of marketed drugs” (Nat Commun, 2023).
# Key:
# [1] = biological target: T1, 5-hydroxytryptamine receptor 1A (Homo sapiens, UniProt P08908); type: functional, cell-based
# T1 sequence (P08908 whole entry): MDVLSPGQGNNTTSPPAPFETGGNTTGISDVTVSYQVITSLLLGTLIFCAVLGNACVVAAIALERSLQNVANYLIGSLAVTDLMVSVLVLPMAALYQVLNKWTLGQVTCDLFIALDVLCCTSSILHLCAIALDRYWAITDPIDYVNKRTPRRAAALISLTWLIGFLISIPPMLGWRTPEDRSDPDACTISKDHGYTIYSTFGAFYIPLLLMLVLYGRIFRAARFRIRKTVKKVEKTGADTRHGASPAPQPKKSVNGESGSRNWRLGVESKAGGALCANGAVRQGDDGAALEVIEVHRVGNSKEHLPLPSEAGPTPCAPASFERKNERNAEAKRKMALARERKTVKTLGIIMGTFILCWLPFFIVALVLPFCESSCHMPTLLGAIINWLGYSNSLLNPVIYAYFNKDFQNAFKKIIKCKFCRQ
# [2] = biological target: Neuronal acetylcholine receptor subunit alpha-4 (Homo sapiens, UniProt P43681)
# [3] = biological target: T2, Alpha-2C adrenergic receptor (Homo sapiens, UniProt P18825); type: functional
# T2 sequence (P18825 whole entry): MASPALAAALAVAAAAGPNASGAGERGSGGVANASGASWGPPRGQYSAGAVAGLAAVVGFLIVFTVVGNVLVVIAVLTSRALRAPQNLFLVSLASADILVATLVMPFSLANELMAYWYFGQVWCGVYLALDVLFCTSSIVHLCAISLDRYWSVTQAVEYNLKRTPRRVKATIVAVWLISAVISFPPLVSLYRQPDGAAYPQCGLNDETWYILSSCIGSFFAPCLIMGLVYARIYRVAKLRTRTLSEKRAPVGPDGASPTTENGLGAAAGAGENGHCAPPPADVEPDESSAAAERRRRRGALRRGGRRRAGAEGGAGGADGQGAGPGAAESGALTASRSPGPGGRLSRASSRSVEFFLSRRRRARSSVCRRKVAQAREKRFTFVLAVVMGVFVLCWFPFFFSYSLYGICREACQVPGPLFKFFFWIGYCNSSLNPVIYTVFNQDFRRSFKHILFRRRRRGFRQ
# [4] = biological target: T3, Cholecystokinin receptor type A (Homo sapiens, UniProt P32238)
# T3 sequence (P32238 whole entry): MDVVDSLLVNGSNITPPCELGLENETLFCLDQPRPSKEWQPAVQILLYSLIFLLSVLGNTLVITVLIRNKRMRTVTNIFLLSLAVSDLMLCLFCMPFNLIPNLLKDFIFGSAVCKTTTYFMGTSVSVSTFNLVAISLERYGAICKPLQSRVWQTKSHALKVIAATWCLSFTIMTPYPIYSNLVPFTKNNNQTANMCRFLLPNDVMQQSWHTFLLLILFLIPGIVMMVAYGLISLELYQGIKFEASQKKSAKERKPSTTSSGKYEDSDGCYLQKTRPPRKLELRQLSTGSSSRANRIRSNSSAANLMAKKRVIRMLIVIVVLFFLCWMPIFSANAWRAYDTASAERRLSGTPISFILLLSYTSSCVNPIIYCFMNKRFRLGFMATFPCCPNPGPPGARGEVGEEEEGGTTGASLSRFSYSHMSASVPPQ
# [5] = biological target: Vasopressin V2 receptor (Homo sapiens, UniProt P30518)
# [6] = biological target: Growth hormone secretagogue receptor type 1 (Homo sapiens, UniProt Q92847)
# [7] = biological target: Adenosine receptor A2a (Homo sapiens, UniProt P29274)
# [8] = biological target: cGMP-inhibited 3',5'-cyclic phosphodiesterase 3A (Homo sapiens, UniProt Q14432); type: functional
# [9] = biological target: T4, B2 bradykinin receptor (Homo sapiens, UniProt P30411)
# T4 sequence (P30411 whole entry): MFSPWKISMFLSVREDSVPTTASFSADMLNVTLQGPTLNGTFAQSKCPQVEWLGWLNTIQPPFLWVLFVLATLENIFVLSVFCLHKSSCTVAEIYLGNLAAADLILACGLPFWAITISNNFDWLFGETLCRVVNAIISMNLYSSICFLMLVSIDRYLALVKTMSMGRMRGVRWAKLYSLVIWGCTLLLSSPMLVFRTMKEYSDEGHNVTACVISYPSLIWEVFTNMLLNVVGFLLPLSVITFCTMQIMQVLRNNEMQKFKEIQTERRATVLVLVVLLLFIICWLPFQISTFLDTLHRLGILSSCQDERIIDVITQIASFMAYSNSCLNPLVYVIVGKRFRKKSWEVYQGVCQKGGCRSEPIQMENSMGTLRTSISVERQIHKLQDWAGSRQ
# [10] = biological target: 3',5'-cyclic-AMP phosphodiesterase 4D (Homo sapiens, UniProt Q08499); type: functional
# [11] = biological target: Histamine H2 receptor (Homo sapiens, UniProt P25021); type: functional, cell-based
# [12] = biological target: D(3) dopamine receptor (Homo sapiens, UniProt P35462)
# [13] = biological target: T5, Amine oxidase [flavin-containing] A (Homo sapiens, UniProt P21397); type: functional
# T5 sequence (P21397 whole entry): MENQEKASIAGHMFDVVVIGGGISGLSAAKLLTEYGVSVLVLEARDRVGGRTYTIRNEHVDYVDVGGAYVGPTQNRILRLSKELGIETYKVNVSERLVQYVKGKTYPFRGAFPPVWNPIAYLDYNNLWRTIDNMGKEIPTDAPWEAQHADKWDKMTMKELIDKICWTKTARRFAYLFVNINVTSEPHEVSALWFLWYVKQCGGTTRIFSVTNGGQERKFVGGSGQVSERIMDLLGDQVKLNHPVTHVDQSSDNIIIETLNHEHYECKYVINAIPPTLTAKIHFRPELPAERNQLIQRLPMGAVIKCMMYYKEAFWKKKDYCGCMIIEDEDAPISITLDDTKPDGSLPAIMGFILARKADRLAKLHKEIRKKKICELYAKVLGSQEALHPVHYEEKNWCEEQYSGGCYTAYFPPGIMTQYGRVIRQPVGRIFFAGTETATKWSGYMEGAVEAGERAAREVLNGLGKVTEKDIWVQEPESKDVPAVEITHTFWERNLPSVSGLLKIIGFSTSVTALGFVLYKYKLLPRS
# [14] = biological target: Voltage-gated inwardly rectifying potassium channel KCNH2 (Homo sapiens, UniProt Q12809); type: functional
# Further: assay procedure not described here.
# Sequence of Histamine H2 receptor (P25021 whole entry): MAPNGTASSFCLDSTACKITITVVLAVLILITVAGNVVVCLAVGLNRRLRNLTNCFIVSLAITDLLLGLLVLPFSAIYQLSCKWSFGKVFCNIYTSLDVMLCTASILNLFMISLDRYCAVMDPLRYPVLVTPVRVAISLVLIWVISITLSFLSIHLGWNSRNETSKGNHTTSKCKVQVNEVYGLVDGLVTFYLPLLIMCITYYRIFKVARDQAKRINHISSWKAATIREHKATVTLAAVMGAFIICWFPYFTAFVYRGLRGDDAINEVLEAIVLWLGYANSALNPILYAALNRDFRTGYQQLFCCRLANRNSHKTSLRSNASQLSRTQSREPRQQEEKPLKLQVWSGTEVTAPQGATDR
# Sequence of 3',5'-cyclic-AMP phosphodiesterase 4D (Q08499 whole entry): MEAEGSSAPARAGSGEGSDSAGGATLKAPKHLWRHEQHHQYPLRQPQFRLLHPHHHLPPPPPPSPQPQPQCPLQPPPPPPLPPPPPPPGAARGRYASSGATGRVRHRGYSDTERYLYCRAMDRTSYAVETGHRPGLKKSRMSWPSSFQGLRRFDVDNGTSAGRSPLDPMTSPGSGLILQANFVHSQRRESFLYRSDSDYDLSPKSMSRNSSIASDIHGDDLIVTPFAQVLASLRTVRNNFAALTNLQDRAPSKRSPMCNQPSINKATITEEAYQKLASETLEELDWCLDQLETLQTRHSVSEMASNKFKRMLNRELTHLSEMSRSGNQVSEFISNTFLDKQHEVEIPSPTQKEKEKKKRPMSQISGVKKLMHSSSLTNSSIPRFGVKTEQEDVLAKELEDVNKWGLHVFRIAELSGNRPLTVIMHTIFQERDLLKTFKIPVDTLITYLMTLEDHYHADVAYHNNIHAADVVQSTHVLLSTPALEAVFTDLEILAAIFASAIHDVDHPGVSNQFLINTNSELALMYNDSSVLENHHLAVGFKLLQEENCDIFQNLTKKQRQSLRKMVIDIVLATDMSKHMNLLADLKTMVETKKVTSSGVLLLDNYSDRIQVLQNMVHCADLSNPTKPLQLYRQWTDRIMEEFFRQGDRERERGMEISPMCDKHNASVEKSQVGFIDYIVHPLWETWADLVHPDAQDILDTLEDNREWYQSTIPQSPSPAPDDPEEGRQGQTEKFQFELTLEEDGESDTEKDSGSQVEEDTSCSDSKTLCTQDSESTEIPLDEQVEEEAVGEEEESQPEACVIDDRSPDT
# Sequence of Neuronal acetylcholine receptor subunit alpha-4 (P43681 whole entry): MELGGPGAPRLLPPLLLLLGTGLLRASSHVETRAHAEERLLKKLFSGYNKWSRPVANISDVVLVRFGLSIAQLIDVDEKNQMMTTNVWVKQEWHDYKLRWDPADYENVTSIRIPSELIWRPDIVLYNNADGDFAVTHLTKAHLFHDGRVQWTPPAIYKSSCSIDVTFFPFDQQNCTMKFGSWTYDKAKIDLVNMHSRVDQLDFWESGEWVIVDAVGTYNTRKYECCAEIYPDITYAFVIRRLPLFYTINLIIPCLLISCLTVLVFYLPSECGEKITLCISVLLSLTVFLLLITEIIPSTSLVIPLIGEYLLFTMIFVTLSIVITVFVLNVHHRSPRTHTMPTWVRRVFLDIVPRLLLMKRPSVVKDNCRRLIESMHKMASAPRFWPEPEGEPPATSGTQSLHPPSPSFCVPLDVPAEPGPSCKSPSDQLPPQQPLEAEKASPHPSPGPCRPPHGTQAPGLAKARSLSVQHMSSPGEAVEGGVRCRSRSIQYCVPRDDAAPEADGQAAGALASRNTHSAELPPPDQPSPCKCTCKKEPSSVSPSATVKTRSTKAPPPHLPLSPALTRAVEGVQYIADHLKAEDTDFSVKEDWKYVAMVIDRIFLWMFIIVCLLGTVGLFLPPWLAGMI
# Sequence of Vasopressin V2 receptor (P30518 whole entry): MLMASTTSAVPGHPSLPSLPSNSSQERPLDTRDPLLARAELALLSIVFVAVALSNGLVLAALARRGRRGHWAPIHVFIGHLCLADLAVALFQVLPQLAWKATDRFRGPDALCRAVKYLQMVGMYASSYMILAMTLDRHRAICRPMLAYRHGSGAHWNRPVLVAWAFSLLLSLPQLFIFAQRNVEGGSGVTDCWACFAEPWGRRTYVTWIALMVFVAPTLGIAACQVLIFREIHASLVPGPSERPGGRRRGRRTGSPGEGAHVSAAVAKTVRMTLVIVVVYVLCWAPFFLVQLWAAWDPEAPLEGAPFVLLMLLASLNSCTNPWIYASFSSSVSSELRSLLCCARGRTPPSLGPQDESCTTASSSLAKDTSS
# Sequence of Voltage-gated inwardly rectifying potassium channel KCNH2 (Q12809 whole entry): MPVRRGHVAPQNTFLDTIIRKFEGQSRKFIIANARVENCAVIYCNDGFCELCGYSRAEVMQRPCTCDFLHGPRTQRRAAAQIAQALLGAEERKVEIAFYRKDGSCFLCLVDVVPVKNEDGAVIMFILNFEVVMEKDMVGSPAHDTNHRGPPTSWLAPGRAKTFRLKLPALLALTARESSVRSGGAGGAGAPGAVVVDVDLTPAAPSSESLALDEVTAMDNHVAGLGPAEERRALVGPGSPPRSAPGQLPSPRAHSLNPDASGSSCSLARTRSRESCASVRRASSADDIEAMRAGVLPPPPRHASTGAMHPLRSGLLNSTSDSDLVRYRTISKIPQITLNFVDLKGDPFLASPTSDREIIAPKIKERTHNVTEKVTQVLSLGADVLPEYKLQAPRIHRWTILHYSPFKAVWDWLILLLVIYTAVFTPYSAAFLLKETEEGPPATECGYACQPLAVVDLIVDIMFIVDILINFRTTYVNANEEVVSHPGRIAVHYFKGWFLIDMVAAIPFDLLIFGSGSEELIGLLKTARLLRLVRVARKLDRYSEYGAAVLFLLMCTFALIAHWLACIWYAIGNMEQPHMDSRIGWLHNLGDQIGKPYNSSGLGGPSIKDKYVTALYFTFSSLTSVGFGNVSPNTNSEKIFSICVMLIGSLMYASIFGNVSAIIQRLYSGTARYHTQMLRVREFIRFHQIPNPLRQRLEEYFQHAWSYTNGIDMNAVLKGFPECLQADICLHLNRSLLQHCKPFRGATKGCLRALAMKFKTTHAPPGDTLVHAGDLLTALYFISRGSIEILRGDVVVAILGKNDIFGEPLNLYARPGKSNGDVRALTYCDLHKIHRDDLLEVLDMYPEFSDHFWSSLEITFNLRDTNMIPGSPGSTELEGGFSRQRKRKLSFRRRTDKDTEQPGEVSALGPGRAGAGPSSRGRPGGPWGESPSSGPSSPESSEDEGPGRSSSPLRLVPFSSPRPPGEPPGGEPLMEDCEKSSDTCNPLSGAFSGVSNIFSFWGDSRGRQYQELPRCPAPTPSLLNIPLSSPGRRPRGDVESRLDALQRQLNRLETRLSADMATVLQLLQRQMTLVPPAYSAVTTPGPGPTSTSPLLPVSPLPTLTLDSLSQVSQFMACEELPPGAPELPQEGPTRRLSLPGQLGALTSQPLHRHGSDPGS
# Sequence of Adenosine receptor A2a (P29274 whole entry): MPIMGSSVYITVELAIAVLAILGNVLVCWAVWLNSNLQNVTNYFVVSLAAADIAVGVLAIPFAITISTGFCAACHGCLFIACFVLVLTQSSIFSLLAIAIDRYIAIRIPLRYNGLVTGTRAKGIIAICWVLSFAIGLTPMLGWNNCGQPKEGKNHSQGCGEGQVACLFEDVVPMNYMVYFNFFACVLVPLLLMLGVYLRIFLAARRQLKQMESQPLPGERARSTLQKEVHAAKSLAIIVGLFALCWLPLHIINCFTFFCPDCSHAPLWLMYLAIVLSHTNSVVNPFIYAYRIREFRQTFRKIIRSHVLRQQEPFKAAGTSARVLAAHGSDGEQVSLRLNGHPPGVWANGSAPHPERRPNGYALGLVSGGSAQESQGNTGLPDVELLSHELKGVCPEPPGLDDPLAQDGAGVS
# Sequence of cGMP-inhibited 3',5'-cyclic phosphodiesterase 3A (Q14432 whole entry): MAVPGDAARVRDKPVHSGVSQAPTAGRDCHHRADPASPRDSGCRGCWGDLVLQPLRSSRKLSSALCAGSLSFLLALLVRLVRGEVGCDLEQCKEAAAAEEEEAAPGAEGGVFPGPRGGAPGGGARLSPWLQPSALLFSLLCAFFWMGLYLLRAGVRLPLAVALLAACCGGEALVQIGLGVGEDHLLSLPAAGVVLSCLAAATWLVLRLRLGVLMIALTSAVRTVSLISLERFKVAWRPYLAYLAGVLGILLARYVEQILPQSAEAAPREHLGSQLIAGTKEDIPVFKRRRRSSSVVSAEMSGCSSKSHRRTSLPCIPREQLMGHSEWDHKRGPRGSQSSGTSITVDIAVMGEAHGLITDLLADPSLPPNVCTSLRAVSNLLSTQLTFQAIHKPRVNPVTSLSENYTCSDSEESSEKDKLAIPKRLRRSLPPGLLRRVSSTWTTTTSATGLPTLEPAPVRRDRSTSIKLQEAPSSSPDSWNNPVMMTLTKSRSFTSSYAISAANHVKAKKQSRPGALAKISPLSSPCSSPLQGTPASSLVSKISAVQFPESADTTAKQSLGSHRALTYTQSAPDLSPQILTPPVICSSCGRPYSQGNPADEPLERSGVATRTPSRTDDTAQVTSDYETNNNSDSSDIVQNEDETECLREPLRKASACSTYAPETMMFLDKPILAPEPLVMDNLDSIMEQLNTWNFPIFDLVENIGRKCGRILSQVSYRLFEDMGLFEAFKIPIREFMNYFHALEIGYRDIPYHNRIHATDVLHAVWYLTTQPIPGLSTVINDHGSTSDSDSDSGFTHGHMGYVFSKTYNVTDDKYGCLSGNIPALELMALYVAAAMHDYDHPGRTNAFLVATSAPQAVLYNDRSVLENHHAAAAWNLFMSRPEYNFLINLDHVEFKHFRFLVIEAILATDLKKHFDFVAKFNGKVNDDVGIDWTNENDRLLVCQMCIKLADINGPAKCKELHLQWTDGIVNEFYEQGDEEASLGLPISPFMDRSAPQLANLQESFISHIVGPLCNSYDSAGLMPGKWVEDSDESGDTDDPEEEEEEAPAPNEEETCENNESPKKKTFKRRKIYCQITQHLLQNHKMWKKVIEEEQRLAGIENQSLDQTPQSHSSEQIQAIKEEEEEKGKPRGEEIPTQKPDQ
Structure (SMILES),AC50 [1],AC50 [2],AC50 [3],AC50 [4],AC50 [5],AC50 [6],AC50 [7],AC50 [8],AC50 [9],AC50 [10],AC50 [11],AC50 [12],AC50 [13],AC50 [14]
CCOC(=O)C1=C[C@]2(CC)CCCN3CCc4c(n1c1ccccc41)[C@@H]32 [VINPOCETINE],> 30 µM,> 30 µM,1.1 µM,> 30 µM,> 30 µM,> 30 µM,> 30 µM,> 30 µM,> 30 µM,8.8 µM,> 30 µM,23 µM,> 30 µM,–
CN1CCN(C2=Nc3ccccc3Oc3ccc(Cl)cc32)CC1 [LOXAPINE],> 10 µM,> 10 µM,–,> 30 µM,> 30 µM,> 30 µM,> 30 µM,> 30 µM,> 30 µM,–,> 10 µM,0.032 µM,> 10 µM,10.6 µM
Cc1cccc(N2CC(CO)OC2=O)c1 (stereo not drawn) [TOLOXATONE],> 30 µM,> 30 µM,> 30 µM,> 30 µM,> 30 µM,> 30 µM,> 30 µM,> 30 µM,> 30 µM,> 30 µM,> 30 µM,> 30 µM,–,> 30 µM
Oc1ccc2c(c1)CC[C@H](c1ccccc1)[C@@H]2c1ccc(OCCN2CCCC2)cc1 [LASOFOXIFENE],> 30 µM,> 30 µM,–,> 3 µM,15 µM,5.2 µM,> 30 µM,> 30 µM,> 30 µM,15 µM,> 30 µM,2.2 µM,> 30 µM,0.73 µM
Clc1ccc(C(Cn2ccnc2)OCc2ccsc2Cl)c(Cl)c1 (stereo not drawn) [TIOCONAZOLE],> 30 µM,> 30 µM,6.5 µM,> 30 µM,> 30 µM,8.5 µM,> 30 µM,17 µM,> 3 µM,8.7 µM,> 30 µM,24 µM,> 30 µM,–
CC(C)NCC(O)c1ccc(O)c(O)c1 (stereo not drawn) [ISOPROTERENOL],> 10 µM,> 30 µM,–,> 30 µM,> 30 µM,> 30 µM,> 30 µM,18 µM,> 30 µM,> 30 µM,> 10 µM,> 30 µM,> 10 µM,> 30 µM
Cc1cc2cc3c(C)cc(=O)oc3c(C)c2o1 [TRIOXSALEN],> 10 µM,> 10 µM,> 10 µM,> 10 µM,> 10 µM,> 10 µM,6.7 µM,> 30 µM,> 10 µM,–,> 10 µM,> 30 µM,0.72 µM,> 30 µM
CC(C)COCC(CN(Cc1ccccc1)c1ccccc1)N1CCCC1 (stereo not drawn) [BEPRIDIL],> 30 µM,–,3.3 µM,23.2 µM,> 30 µM,22.1 µM,> 30 µM,> 30 µM,> 30 µM,> 30 µM,> 30 µM,2.6 µM,> 30 µM,–
CN1CCC(=C2c3ccccc3CCc3cccnc32)CC1 [AZATADINE],> 30 µM,> 10 µM,–,> 30 µM,> 30 µM,> 30 µM,> 30 µM,> 30 µM,> 30 µM,> 30 µM,> 10 µM,> 10 µM,> 10 µM,24.6 µM
CCC(C)C1(CC)C(=O)NC(=O)NC1=O (stereo not drawn) [BUTABARBITAL],> 30 µM,> 30 µM,> 30 µM,> 30 µM,> 30 µM,> 30 µM,> 30 µM,> 30 µM,> 30 µM,> 30 µM,> 30 µM,–,> 30 µM,> 30 µM
